Data on 14 compounds can be found in PubChem BioAssay (NCI).

Common to all, as to test: inhibition of tumour cell growth, NCI panel, 48 h
Assay [1] relates to SK-MEL-5 melanoma.
The subject of assay [2] is A549 NSCLC.
The subject of assay [3] is OVCAR-5 ovarian.
Assay [4] relates to MCF7 breast.
In assay [5] the test system is HOP-62 NSCLC.
Assay [6] concerns UO-31 renal.
The test system of assay [7] is K-562 leukemia.
The test system of assay [8] is RXF 393 renal.
Assay [9] has as its system SF-295 CNS.
Assay [10] has as its system MALME-3M melanoma.

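How tested: cells in 96-well plates exposed to compound for 48 hours at five concentrations. At the GI50, growth is halved. The concentration for full growth arrest is given as TGI.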

For `CCc1ccc2oc(-c3cc(O)c(-c4nc5cc(CC)ccc5o4)cc3O)nc2c1`, the TGI in assay [1], in [2], in [3], in [4], in assay [5] and in assay [6] was more than 100 µM throughout. The TGI in [7] was more than 100 µM.
In the case of `CC(C)C(=O)/C=C/c1ccc(Br)cc1`, the TGI in [1] amounted to 26.6 µM; in assay [8] it was 36 µM; in assay [2], 65.5 µM; in assay [3] it was 27.5 µM; in assay [6], 30.1 µM; in [9], 29.9 µM. This compound displayed a TGI in assay [7] of more than 100 µM.
For the compound `CCCSc1ccc2[nH]c(/N=C/c3ccco3)cc2c1`, the TGI in [1] was 32.6 µM; in [8] it was more than 100 µM; in assay [2] it was more than 100 µM; in [3], more than 100 µM; in [4] it was more than 100 µM; in [10] it was more than 100 µM. Further, the TGI in assay [5], in [6] and in assay [9] was more than 100 µM throughout.
As to `COC(=O)C1=C2SCc3cccc(c3)CSC3=C(C(=O)OC)SC(=C(S2)S1)S3`, the TGI in assay [1], in assay [8], in [2], in assay [4], in assay [5] and in assay [6] was more than 100 µM in each case. Moreover, the TGI in assay [9] and in assay [7] was more than 100 µM in each case.
Consider `O=C1c2ccccc2CCCCCCCCCCC12OCCCO2`, for which the TGI is 83.8 µM in assay [1]; 33.7 µM in assay [8]; 91.9 µM in assay [2]; 66.8 µM in [3]; 77.8 µM in assay [10]; more than 100 µM in assay [5]. Also, the TGI in assay [6], in assay [9] and in assay [7] was more than 100 µM throughout.
For `CC(=O)Nc1cc2c(s1)CCC1CC(=O)NN=C21` (centres undefined), the TGI in assay [1], in assay [8], in assay [2], in assay [3], in [10] and in assay [5] was more than 100 µM in each case. The TGI in [6], in assay [9] and in assay [7] was more than 100 µM each time.
On to `O=C(OCC1OC2OC(c3ccccc3)(n3ccc4c([N+](=O)[O-])ccnc43)OC2C1OC(=O)c1ccccc1)c1ccccc1` (centres undefined), for which the TGI in [1], in assay [2], in [3], in [4], in assay [10] and in assay [5] was more than 100 µM in each case. Also, the TGI in [6], in [9] and in assay [7] was more than 100 µM each time.
`C[C@]12CCc3nc(Nc4ccccc4)sc3C1=CC[C@@H]1[C@@H]2CC[C@]2(C)/C(=N/NC(N)=S)CC[C@@H]12`: the GI50 in assay [1] is 5.9 µM; in assay [8] it was 2.18 µM; in assay [2], 8.5 µM; in assay [4] it was 1.08 µM; in assay [10], 3 µM; in [5], 17.6 µM. The figures for the GI50 in [6], in assay [9] and in assay [7] were 3.71 µM, 3.75 µM and 1.97 µM, respectively. Moreover, the TGI in assay [1] was more than 100 µM; in [8], 5.09 µM; in assay [2], more than 100 µM; in assay [4] it was more than 100 µM; in assay [10] it was more than 100 µM; in [5], more than 100 µM. For the same compound, the TGI in assay [6] is more than 100 µM; in [9] it was 72.3 µM; in assay [7] it was more than 100 µM.
For the compound `Cc1cc(C2(O)C=C(C(C)(C)C)C(=O)C(C(C)(C)C)=C2)c(C)cc1C1(O)C=C(C(C)(C)C)C(=O)C(C(C)(C)C)=C1`, the TGI in [1], in assay [2], in [3], in [4], in [10] and in [5] was more than 100 µM throughout. For the same compound, the TGI in assay [6], in [9] and in [7] was more than 100 µM in each case.
Regarding `CCOC(=O)/C=C(/C(=O)OCC)n1ccc(N)nc1=O`, the TGI in [1], in assay [2], in assay [3], in assay [4], in assay [10] and in assay [5] was more than 100 µM in each case. Moreover, the TGI in [6], in assay [9] and in [7] was more than 100 µM each time.
As to `CNC(=O)Oc1ccc(-c2cn3cc(OC(=O)NC)ccc3n2)cc1`, the TGI in assay [1], in assay [8], in assay [2], in assay [3], in assay [4] and in assay [5] was more than 100 µM in each case. The TGI in assay [6], in assay [9] and in [7] was more than 100 µM in each case.
Regarding `NCCN=C(Nc1ccccc1)Nc1ccccc1`, the TGI in assay [1], in assay [8], in [2], in assay [4], in assay [10] and in [5] was more than 100 µM in each case. For the same compound, the TGI in [6], in assay [9] and in assay [7] was more than 100 µM throughout.
For the compound `COc1cc(C2SCC(=O)N2c2ccc(-c3ccc(-n4c(-c5ccccc5)nc5ccccc5c4=O)cc3)cc2)cc(OC)c1OC` (centres undefined), the TGI is more than 100 µM in assay [1]; more than 100 µM in [2]; more than 100 µM in assay [3]; more than 100 µM in assay [4]; more than 100 µM in assay [10]; 85.5 µM in [5]. Further, the TGI in assay [6] and in assay [7] was more than 100 µM each time.
Regarding `CN(O)C(=O)c1cccc(Cl)c1`, the TGI in assay [1], in assay [8], in assay [2], in assay [3], in assay [4] and in assay [5] was more than 100 µM throughout. Besides, the TGI in assay [6], in assay [9] and in [7] was more than 100 µM each time.
